Source: patent publication US20240374585A1, “EPITHELIAL SODIUM CHANNEL (ENAC) INHIBITOR CONJUGATES AND METHODS FOR USE THEREOF” (Lung Therapeutics, Inc., priority 2021, published 2024)
pIC50: −log10 of the molar value. Where a SMILES comes first, the peptide text is derived from it. [ ]: non-standard residue; d: D form. The star is where a group is joined. X2 = NC(=NC(=O)c1nc(Cl)c(N)nc1N)NCCCCN1C(=O)CC(*)C1=O; Hyp = O=C(O)[C@@H]1C[C@@H](O)CN1; Ahx = NCCCCCC(=O)O

target: T1, ENaC (Homo sapiens, UniProt P37088+P51168+P51170); test: ENaC inhibition in NHBE cell monolayers, Ussing epithelial voltage clamp (short circuit current); type: cell-based; conditions: not given
T1 construct: Primary NHBE cells were isolated from bronchi of normal healthy patients; endogenous in cells; host or cells: primary normal human bronchial epithelial (NHBE) cells, differentiated at air-liquid interface
T1 sequence (P37088 1-669): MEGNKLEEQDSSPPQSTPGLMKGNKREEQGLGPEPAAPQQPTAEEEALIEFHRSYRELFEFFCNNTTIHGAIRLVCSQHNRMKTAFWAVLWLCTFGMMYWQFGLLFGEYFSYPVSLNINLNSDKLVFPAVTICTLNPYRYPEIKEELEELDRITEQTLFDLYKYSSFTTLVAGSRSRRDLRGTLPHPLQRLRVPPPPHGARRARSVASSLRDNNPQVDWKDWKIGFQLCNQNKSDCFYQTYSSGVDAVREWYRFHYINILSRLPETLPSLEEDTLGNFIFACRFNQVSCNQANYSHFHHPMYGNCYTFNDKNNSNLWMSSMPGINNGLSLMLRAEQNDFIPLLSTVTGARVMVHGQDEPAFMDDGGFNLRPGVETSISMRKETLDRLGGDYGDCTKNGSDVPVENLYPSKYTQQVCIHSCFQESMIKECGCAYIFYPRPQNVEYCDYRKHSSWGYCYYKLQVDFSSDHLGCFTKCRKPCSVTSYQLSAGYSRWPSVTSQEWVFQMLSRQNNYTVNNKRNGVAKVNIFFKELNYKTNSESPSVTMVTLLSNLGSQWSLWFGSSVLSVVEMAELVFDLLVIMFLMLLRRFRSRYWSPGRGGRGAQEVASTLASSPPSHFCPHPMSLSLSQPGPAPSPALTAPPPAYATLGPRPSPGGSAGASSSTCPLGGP
T1 sequence (P51168 1-640): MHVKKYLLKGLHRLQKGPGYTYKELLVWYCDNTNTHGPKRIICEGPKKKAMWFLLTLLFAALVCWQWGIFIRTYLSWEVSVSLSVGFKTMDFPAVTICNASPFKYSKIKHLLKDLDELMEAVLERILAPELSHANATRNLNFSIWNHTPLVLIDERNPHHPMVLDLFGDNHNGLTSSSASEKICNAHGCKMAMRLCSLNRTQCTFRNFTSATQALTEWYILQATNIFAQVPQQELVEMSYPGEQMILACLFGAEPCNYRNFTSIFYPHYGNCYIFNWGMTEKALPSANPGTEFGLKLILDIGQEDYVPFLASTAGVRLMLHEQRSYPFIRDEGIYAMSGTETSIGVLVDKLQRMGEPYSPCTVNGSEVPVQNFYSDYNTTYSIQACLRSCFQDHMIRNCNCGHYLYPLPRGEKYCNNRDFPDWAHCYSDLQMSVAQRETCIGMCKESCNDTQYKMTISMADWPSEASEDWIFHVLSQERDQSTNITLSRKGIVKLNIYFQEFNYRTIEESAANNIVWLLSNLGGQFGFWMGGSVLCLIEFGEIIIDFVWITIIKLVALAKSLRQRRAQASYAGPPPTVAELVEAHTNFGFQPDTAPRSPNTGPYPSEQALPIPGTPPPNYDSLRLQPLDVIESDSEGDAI
T1 sequence (P51170 1-649): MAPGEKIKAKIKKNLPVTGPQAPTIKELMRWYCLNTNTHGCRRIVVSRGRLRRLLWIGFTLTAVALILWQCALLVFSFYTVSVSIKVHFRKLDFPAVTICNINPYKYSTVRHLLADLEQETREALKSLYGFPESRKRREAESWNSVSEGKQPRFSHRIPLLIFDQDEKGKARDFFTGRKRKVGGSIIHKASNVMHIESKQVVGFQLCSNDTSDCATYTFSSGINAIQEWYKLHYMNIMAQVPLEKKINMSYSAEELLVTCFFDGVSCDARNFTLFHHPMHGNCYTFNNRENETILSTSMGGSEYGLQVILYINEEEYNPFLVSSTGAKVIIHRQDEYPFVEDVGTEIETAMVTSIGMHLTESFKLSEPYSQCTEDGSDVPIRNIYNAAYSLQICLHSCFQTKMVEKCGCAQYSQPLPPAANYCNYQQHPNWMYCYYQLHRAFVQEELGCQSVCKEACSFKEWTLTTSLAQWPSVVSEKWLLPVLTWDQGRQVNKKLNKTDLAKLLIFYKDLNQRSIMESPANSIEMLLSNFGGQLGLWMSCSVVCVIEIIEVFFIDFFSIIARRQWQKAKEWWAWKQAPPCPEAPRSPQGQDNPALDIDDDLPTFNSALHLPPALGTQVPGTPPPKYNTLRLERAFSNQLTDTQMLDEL
Procedure: The objective of this study was to measure the ability of the illustrative conjugates to modulate ion transport function of ENAC in normal human bronchial epithelial (NHBE) cell monolayers. Sodium transport function of ENAC expressed in NHBE monolayers was evaluated using an Ussing epithelial voltage clamp apparatus. See, Hirsh et al., J. Pharmacol. Exp. Ther. 2008; 325:77-88, hereby incorporated by reference in its entirety.
Primary NHBE cells were isolated from bronchi of normal healthy patients, expanded in Lonza media (BEGM™ BulletKit™), and plated on Snapwell™ filters to form an epithelium. Cells on Snapwell™ inserts were grown for at least 21 days in Vertex Differentiation media and exposed to an air-liquid interface to promote differentiation. At least one day before the assay, mucous overlaying the apical surface was removed from the inserts by incubating the apical surface for about 30 minutes with ≥200 μL of differentiation media followed by aspiration of the mucous film and media.
The NHBE cell monolayers grown on Snapwell™ filter inserts were transferred to Physiologic Instruments Ussing recording chambers (Physiologic Instruments, Inc., San Diego, CA) and superfused with HB-PS. One or more 6-channel or 8-channel Physiologic Instruments VCC MC6 or VCC MC8 epithelial voltage clamps were used in combination to record short circuit current (ISC) from up to 24 inserts simultaneously. Air was used to operate the bubble lifts to rapidly circulate solutions in each Ussing chamber half and to aerate the monolayers.
Inserts were voltage clamped at 0 m V to record the ISC. Bumetanide (20 μM) was added to the basolateral side of all inserts. Test conjugates prepared as DMSO (Sigma-Aldrich) stocks were added cumulatively and sequentially to the apical Ussing chamber halves with at least 3 minutes between each addition.
Time and volume matched additions of DMSO to the basolateral side of the test conjugate treated inserts and both sides of the vehicle treated inserts was made to maintain osmotic balance across the epithelia. Transepithelial resistance was monitored with small voltage steps. The assay was performed at 35±2° C.
ENaC current at each test conjugate concentration was calculated as the peak current change produced by each test conjugate treated insert minus the mean current change produced by the corresponding DMSO additions to time-matched vehicle controls inserts. Cumulative difference data was fit to a Hill equation of the form: […]
Where IEnaC is the ISC peak difference current measured at each test conjugate concentration [Test].

Row | Compound | pIC50
1 | CC[C@H](C)[C@H](NC(=O)[C@H](Cc1ccc(O)cc1)NC(=O)[C@@H]1C[C@@H](O)CN1C(=O)[C@H](C)NC(=O)[C@H](CC(C)C)NC(=O)[C@H](C)NC(=O)CCCCCNC(=O)[C@H](CSC1CC(=O)N(CCCCNC(N)=NC(=O)c2nc(Cl)c(N)nc2N)C1=O)NC(C)=O)C(N)=O (some centres unmarked) [Conjugate 10, Ac-(AmilTC-C)-Ahx-ALA(Hyp)YI-NH2] (Ac-C(X2)[Ahx]ALA[Hyp]YI-NH2) | 6.31
2 | CC(=O)N[C@@H](CSC1CC(=O)N(CCCCNC(N)=NC(=O)c2nc(Cl)c(N)nc2N)C1=O)C(=O)NCCCCCC(=O)N[C@@H](C)C(=O)N[C@@H](CO)C(=O)N[C@@H](Cc1c[nH]cn1)C(=O)N[C@@H](CC(C)C)C(=O)N[C@@H](CCCNC(=N)N)C(=O)N[C@@H](CCCCN)C(=O)N[C@@H](CC(C)C)C(=O)N[C@@H](CCCNC(=N)N)C(=O)N[C@@H](CCCCN)C(=O)N[C@@H](CCCNC(=N)N)C(=O)N[C@@H](CC(C)C)C(=O)N[C@@H](CC(C)C)C(N)=O (some centres unmarked) [Conjugate 11] (Ac-C(X2)[Ahx]ASHLRKLRKRLL-NH2) | 7.15
3 | CC(=O)N[C@@H](CCCCn1cc(CCCCCNC(N)=NC(=O)c2nc(Cl)c(N)nc2N)nn1)C(=O)NCCCCCC(=O)N[C@@H](C)C(=O)N[C@@H](CO)C(=O)N[C@@H](Cc1c[nH]cn1)C(=O)N[C@@H](CC(C)C)C(=O)N[C@@H](CCCNC(=N)N)C(=O)N[C@@H](CCCCN)C(=O)N[C@@H](CC(C)C)C(=O)N[C@@H](CCCNC(=N)N)C(=O)N[C@@H](CCCCN)C(=O)N[C@@H](CCCNC(=N)N)C(=O)N[C@@H](CC(C)C)C(=O)N[C@@H](CC(C)C)C(N)=O [Conjugate 5] | 7.52

same assay, conditions: NHBE cell monolayers, Ussing chamber, apical addition, 35±2° C.

Row | Compound | IC50 for the ENaC inhibition
4 | Ac-K-(Ahx)-ASHLRKLRKRLL-NH2 (Ac-K[Ahx]ASHLRKLRKRLL-NH2) [Peptide only Control 2, Peptide only control, reference compound] | Did not inhibit
5 | Ac-K-(Ahx)-VSKRR-NH2 (Ac-K[Ahx]VSKRR-NH2) [Peptide only Control 3, Peptide only control, reference compound] | Did not inhibit
6 | Ac-K-(Ahx)-ALA(Hyp)YI-NH2 (Ac-K[Ahx]ALA[Hyp]YI-NH2) [Peptide only Control 1, Peptide only control, reference compound] | Did not inhibit

same assay, conditions: NHBE cell monolayers, Ussing chamber, apical addition, 35±2° C.; read-out: IC50 for the ENaC inhibition

Row | Compound | pIC50
7 | CC(=O)N[C@@H](CSC1CC(=O)N(CCCCNC(N)=NC(=O)c2nc(Cl)c(N)nc2N)C1=O)C(=O)NCCCCCC(=O)N[C@H](C(=O)N[C@@H](CO)C(=O)N[C@@H](CCCCN)C(=O)N[C@@H](CCCNC(=N)N)C(=O)N[C@@H](CCCNC(=N)N)C(N)=O)C(C)C (some centres unmarked) [Conjugate 12, Ac-(AmilTC-C)-Ahx-VSKRR-NH2] (Ac-C(X2)[Ahx]VSKRR-NH2) | 7.10
8 | CC[C@H](C)[C@H](NC(=O)[C@H](Cc1ccc(O)cc1)NC(=O)[C@@H]1C[C@@H](O)CN1C(=O)[C@H](C)NC(=O)[C@H](CC(C)C)NC(=O)[C@H](C)NC(=O)CCCCCNC(=O)[C@H](CCCCn1cc(CCCCCNC(N)=NC(=O)c2nc(Cl)c(N)nc2N)nn1)NC(C)=O)C(N)=O [Conjugate 4, Ac-(AmilCC1-AzK)-Ahx-ALA(Hyp)YI-NH2] | 6.62
9 | CC(=O)N[C@@H](CCCCNC(N)=NC(=O)c1nc(Cl)c(N)nc1N)C(=O)NCCCCCC(=O)N[C@@H](C)C(=O)N[C@@H](CO)C(=O)N[C@@H](Cc1c[nH]cn1)C(=O)N[C@@H](CC(C)C)C(=O)N[C@@H](CCCNC(=N)N)C(=O)N[C@@H](CCCCN)C(=O)N[C@@H](CC(C)C)C(=O)N[C@@H](CCCNC(=N)N)C(=O)N[C@@H](CCCCN)C(=O)N[C@@H](CCCNC(=N)N)C(=O)N[C@@H](CC(C)C)C(=O)N[C@@H](CC(C)C)C(N)=O [Conjugate 2] (HELM PEPTIDE1{[ac].[NC(=NC(=O)c1nc(Cl)c(N)nc1N)NCCCC[C@H](N[*:1])C(=O)[*:2]].[O=C(CCCCCN[*:1])[*:2]].A.S.H.L.R.K.L.R.K.R.L.L.[am]}$$$$V2.0) | 7.10
10 | CC[C@H](C)[C@H](NC(=O)[C@H](Cc1ccc(O)cc1)NC(=O)[C@@H]1C[C@@H](O)CN1C(=O)[C@H](C)NC(=O)[C@H](CC(C)C)NC(=O)[C@H](C)NC(=O)CCCCCNC(=O)[C@H](Cc1cn(CCCCNC(N)=NC(=O)c2nc(Cl)c(N)nc2N)nn1)NC(C)=O)C(N)=O [Conjugate 7, Ac-(AmilCC2-Pgy)-Ahx-ALA(Hyp)YI-NH2] | 6.10
11 | CC(=O)N[C@@H](CCCCn1cc(CCCCCNC(N)=NC(=O)c2nc(Cl)c(N)nc2N)nn1)C(=O)NCCCCCC(=O)N[C@H](C(=O)N[C@@H](CO)C(=O)N[C@@H](CCCCN)C(=O)N[C@@H](CCCNC(=N)N)C(=O)N[C@@H](CCCNC(=N)N)C(N)=O)C(C)C [Conjugate 6, Ac-(AmilCC1-AzK)-Ahx-VSKRR-NH2] | 7.05
12 | CC(=O)N[C@@H](CCCCNC(N)=NC(=O)c1nc(Cl)c(N)nc1N)C(=O)NCCCCCC(=O)N[C@H](C(=O)N[C@@H](CO)C(=O)N[C@@H](CCCCN)C(=O)N[C@@H](CCCNC(=N)N)C(=O)N[C@@H](CCCNC(=N)N)C(N)=O)C(C)C [Conjugate 3, Ac-(AmilAC)K-(Ahx)-VSKRR-NH2] (HELM PEPTIDE1{[ac].[NC(=NC(=O)c1nc(Cl)c(N)nc1N)NCCCC[C@H](N[*:1])C(=O)[*:2]].[O=C(CCCCCN[*:1])[*:2]].V.S.K.R.R.[am]}$$$$V2.0) | 7.30

same assay, conditions: relative to amiloride IC50

Row | Compound | fold more potent than amiloride (ENaC inhibition)
13 | CC(=O)N[C@@H](CCCCn1cc(CCCCCNC(N)=NC(=O)c2nc(Cl)c(N)nc2N)nn1)C(=O)NCCCCCC(=O)N[C@@H](C)C(=O)N[C@@H](CO)C(=O)N[C@@H](Cc1c[nH]cn1)C(=O)N[C@@H](CC(C)C)C(=O)N[C@@H](CCCNC(=N)N)C(=O)N[C@@H](CCCCN)C(=O)N[C@@H](CC(C)C)C(=O)N[C@@H](CCCNC(=N)N)C(=O)N[C@@H](CCCCN)C(=O)N[C@@H](CCCNC(=N)N)C(=O)N[C@@H](CC(C)C)C(=O)N[C@@H](CC(C)C)C(N)=O [Conjugate 5] | about 10 fold
14 | CC(=O)N[C@@H](CCCCNC(N)=NC(=O)c1nc(Cl)c(N)nc1N)C(=O)NCCCCCC(=O)N[C@H](C(=O)N[C@@H](CO)C(=O)N[C@@H](CCCCN)C(=O)N[C@@H](CCCNC(=N)N)C(=O)N[C@@H](CCCNC(=N)N)C(N)=O)C(C)C [Conjugate 3, Ac-(AmilAC)K-(Ahx)-VSKRR-NH2] (HELM PEPTIDE1{[ac].[NC(=NC(=O)c1nc(Cl)c(N)nc1N)NCCCC[C@H](N[*:1])C(=O)[*:2]].[O=C(CCCCCN[*:1])[*:2]].V.S.K.R.R.[am]}$$$$V2.0) | about 10 fold
